What follows are molecules tested against BTK (Homo sapiens, UniProt Q06187) (assay: biochemical). Settings: read-out: BTK inhibition (%).
Chain of BTK (Q06187 402-655 limits assumed): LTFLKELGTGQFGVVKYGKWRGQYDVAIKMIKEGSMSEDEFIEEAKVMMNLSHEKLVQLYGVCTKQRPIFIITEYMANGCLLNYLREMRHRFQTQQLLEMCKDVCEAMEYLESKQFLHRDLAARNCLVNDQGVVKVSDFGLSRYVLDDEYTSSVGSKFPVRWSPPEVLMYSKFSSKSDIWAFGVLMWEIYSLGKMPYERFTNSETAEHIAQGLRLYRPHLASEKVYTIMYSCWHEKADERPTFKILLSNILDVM
`Cc1ccccc1CN1C(=O)C2=C(CCN(Cc3ccccc3)C2)N2CCN=C12` [PCM-0215534] showed an inhibition at 10 µM of -13.8%. With `CN1CCCCC1Cn1cc(C(=O)c2cc([N+](=O)[O-])ccc2I)c2ccccc21` (centres unmarked) [PCM-0095105] the inhibition at 10 µM was 22.6%.

Same assay, conditions: read-out: BTK inhibition (%), 0.75 uM BTK, […] probe 3l, 15 min preincubation
For `CCN(C(=O)c1c(O)c2c(Cl)cccc2n(C)c1=O)c1ccccc1` [PCM-0095368], the inhibition at 10 µM was 11%. With `C[n+]1ccccc1/C=N/O` [PCM-0086551] the inhibition at 10 µM was -18.5%. For `COC(=O)[C@H](O)[C@@H](NC(=O)c1ccccc1)c1ccccc1` [PCM-0216282], the inhibition at 10 µM was -5.4%. In the case of `Nc1c2c(nc3ccccc13)CCCC2` [PCM-0064528], the inhibition at 10 µM is reported as -7.8%. `O=C(O)c1ccc(N2C(=O)/C(=C/c3ccc(-c4ccc([N+](=O)[O-])cc4)o3)C=C2c2ccccc2)cc1` [PCM-0095764] showed an inhibition at 10 µM of 98.1%. For `CC(=O)N=c1sc(S(N)(=O)=O)nn1C` [PCM-0095591], the inhibition at 10 µM was -7.8%. `NCCCCCN` [PCM-0216205] showed an inhibition at 10 µM of 14.7%. With `CCN(c1cc(-c2ccc(CN3CCOCC3)cc2)cc(C(=O)NCc2c(C)cc(C)[nH]c2=O)c1C)C1CCOCC1` [PCM-0095796] the inhibition at 10 µM was -2.6%. With `FC(F)c1nc2ccccc2n1-c1nc(N2CCOCC2)nc(N2CCOCC2)n1` [PCM-0095021] the inhibition at 10 µM was 16.6%. For `COc1cc2c(Oc3ccc4[nH]c(C)cc4c3F)ncnc2cc1OCCCN1CCCC1` [PCM-0094913], the inhibition at 10 µM was 33.8%. `C/C(=C\CNc1ncnc2c1ncn2[C@@H]1O[C@H](CO)[C@@H](O)[C@H]1O)CO` [PCM-0216644] showed an inhibition at 10 µM of 0.8%. For `CC(=O)O[C@H]1C[C@H](O[C@H]2[C@@H](O)C[C@H](O[C@H]3[C@@H](O)C[C@H](O[C@H]4CC[C@@]5(C)[C@H](CC[C@@H]6[C@@H]5C[C@@H](O)[C@]5(C)[C@@H](C7=CC(=O)OC7)CC[C@]65O)C4)O[C@@H]3C)O[C@@H]2C)O[C@H](C)[C@H]1O[C@@H]1O[C@H](CO)[C@@H](O)[C@H](O)[C@H]1O` [PCM-0216197], the inhibition at 10 µM was -4.6%. Molecule `Cc1nc2ccc(CN(C)c3ccc(C(=O)N[C@@H](CCC(=O)O)C(=O)O)s3)cc2c(=O)[nH]1` [PCM-0095076] has an inhibition at 10 µM of 1.6%. Molecule `N#Cc1c(N)nc(NC2CC2)nc1N` [PCM-0216125] has an inhibition at 10 µM of 14%. Work on `CCN(CC)c1ccc2c(-c3ccccc3C(=O)O)c3ccc(=[N+](CC)CC)cc-3oc2c1` [PCM-0216592] yielded an inhibition at 10 µM of 85.7%. With `S=C(N/N=C1\CCCc2cccnc21)N1CCN(c2ccccn2)CC1` [PCM-0215896] the inhibition at 10 µM was 20.1%. Molecule `Cc1cc2c(F)c(Oc3ncnn4cc(OC[C@@H](C)O)c(C)c34)ccc2[nH]1` [PCM-0095049] has an inhibition at 10 µM of 9%. In the case of `O=C(/C=C/c1ccc(O)cc1)OC[C@H]1O[C@@H](Oc2c(-c3ccc(O)cc3)oc3cc(O)cc(O)c3c2=O)[C@H](O)[C@@H](O)[C@@H]1O` [PCM-0216495], the inhibition at 10 µM is reported as 15.3%. Molecule `O=C(C[C@H]1NCCC[C@@H]1O)Cn1cnc2cc(Br)c(Cl)cc2c1=O` [PCM-0102069] has an inhibition at 10 µM of 0%. `Cc1ccc(Sc2ccccc2N2CCNCC2)c(C)c1` [PCM-0095609] was tested, and the inhibition at 10 µM was -6.9%. Work on `COc1c(C)c2c(c(O)c1C/C=C(\C)CCC(=O)OCCN1CCOCC1)C(=O)OC2` [PCM-0090398] yielded an inhibition at 10 µM of -15.2%. `CNS(=O)(=O)Nc1nccc(Cc2c(C)c3ccc(Oc4ncccn4)cc3oc2=O)c1F` [PCM-0215552] gave an inhibition at 10 µM of 17.9%. Molecule `COc1ccc(-c2coc3cc(O)ccc3c2=O)cc1` [PCM-0087244] has an inhibition at 10 µM of 0.8%. Work on `Nc1nc(N)c2nc(-c3ccccc3)c(N)nc2n1` [PCM-0065015] yielded an inhibition at 10 µM of -4.7%. `NC(=O)c1cccc(-c2cc(Nc3ccc(OC(F)(F)F)cc3)ncn2)c1` [PCM-0095363] showed an inhibition at 10 µM of -37.9%. Work on `COc1cc(NC(=O)c2ccccn2)ccc1Cl` [PCM-0095344] yielded an inhibition at 10 µM of 15.6%. For `OC[C@H]1O[C@@H](c2ccc(F)c(Cc3cc4ccccc4s3)c2)[C@H](O)[C@@H](O)[C@@H]1O` [PCM-0215870], the inhibition at 10 µM was 1.5%. `C=CC(=O)N1CCN(CCCn2c(=O)c(-c3c(Cl)c(OC)cc(OC)c3Cl)cc3cnc(NC)nc32)CC1` [PCM-0215863] showed an inhibition at 10 µM of 6.2%. For `COc1ccc(CNc2nc(N3CCC[C@H]3CO)ncc2C(=O)NCc2ncccn2)cc1Cl` [PCM-0095565], the inhibition at 10 µM was -63.8%. In the case of `Cn1c(=O)cc(N2CCC[C@@H](N)C2)n(Cc2ccccc2C#N)c1=O` [PCM-0095535], the inhibition at 10 µM is reported as -11%. With `C#CCN[C@@H]1CCc2ccccc21` [PCM-0090264] the inhibition at 10 µM was -9.3%. In the case of `Cc1cc2c(F)c(Oc3ncnn4cc(OC[C@@H](C)OC(=O)[C@H](C)N)c(C)c34)ccc2[nH]1` [PCM-0094946], the inhibition at 10 µM is reported as -44.8%. `Cn1cnc2c(F)c(Nc3ccc(Br)cc3F)c(C(=O)NOCCO)cc21` [PCM-0215228] was tested, and the inhibition at 10 µM was 22.8%. `CCn1c(-c2nonc2N)nc2c(C#CC(C)(C)O)ncc(OC[C@H]3CCCNC3)c21` [PCM-0094908] was tested, and the inhibition at 10 µM was -4.1%. Molecule `C=C[C@@]1(C)CC(=O)[C@]2(O)[C@@]3(C)[C@@H](O)CCC(C)(C)[C@@H]3[C@H](O)[C@H](OC(C)=O)[C@@]2(C)O1` [PCM-0095317] has an inhibition at 10 µM of -17.1%. Work on `NC(=O)OCC(COC(N)=O)c1ccccc1` [PCM-0065204] yielded an inhibition at 10 µM of 3.1%. `O=C(Nc1ccccc1-c1cn2c(CN3CC[C@@H](O)C3)csc2n1)c1ccc2ccccc2c1` [PCM-0215757] was tested, and the inhibition at 10 µM was -1.5%. In the case of `C=CC(=O)Nc1cccc(Nc2nc(Nc3ccc(Oc4ccnc(C(=O)NC)c4)cc3)ncc2F)c1` [PCM-0215277], the inhibition at 10 µM is reported as 115%. Work on `CC(OC(=O)OC1CCCCC1)OC(=O)C1=C(CSc2nnnn2CCN(C)C)CS[C@@H]2[C@H](NC(=O)Cc3csc(N)n3)C(=O)N12` (some centres unmarked) [PCM-0216590] yielded an inhibition at 10 µM of 4.6%. Work on `N#Cc1cccc(-c2c[nH]c3ncnc(N4CCOCC4)c23)c1` [PCM-0215613] yielded an inhibition at 10 µM of -8.3%. `Clc1cccc(CN=C2Nc3ccccc3NC23CCNCC3)c1` [PCM-0215457] gave an inhibition at 10 µM of 4.6%. `CC(=O)O[C@@H]1CC[C@@]2(C)[C@@H](CC[C@]3(C)[C@@H]2C(=O)C=C2[C@@H]4[C@@H](C)[C@H](C)CC[C@]4(C)CC[C@]23C)[C@@]1(C)C(=O)O` [PCM-0216599] was tested, and the inhibition at 10 µM was 88%. With `C[C@@H]1CC[C@@]2(OC1)O[C@H]1C[C@H]3[C@@H]4CC=C5C[C@@H](O)C[C@@H](O)[C@]5(C)[C@H]4CC[C@]3(C)[C@H]1[C@@H]2C` [PCM-0216451] the inhibition at 10 µM was -20.8%. `O=C(Nc1nc2cccc(-c3ccc(CN4CCS(=O)(=O)CC4)cc3)n2n1)C1CC1` [PCM-0215361] was tested, and the inhibition at 10 µM was 31.7%. With `COc1cc(C(=O)N(CCCc2ccccc2)Cc2ccc(CC(=O)O)cc2)cc(OC)c1C` [PCM-0215725] the inhibition at 10 µM was 16.2%. `OC[C@H]1O[C@@](CO)(OC[C@@]2(OC[C@@]3(OC[C@@]4(O[C@H]5O[C@H](CO)[C@@H](O)[C@H](O)[C@H]5O)O[C@H](CO)[C@@H](O)[C@@H]4O)O[C@H](CO)[C@@H](O)[C@@H]3O)O[C@H](CO)[C@@H](O)[C@@H]2O)[C@@H](O)[C@@H]1O` [PCM-0216335] showed an inhibition at 10 µM of 6.9%. `C[C@]12CC[C@@H]3c4ccc(O)cc4C[C@@H](CCCCCCCCC[S+]([O-])CCCC(F)(F)C(F)(F)F)[C@H]3[C@@H]1CC[C@@H]2O` (some centres unmarked) [PCM-0214604] gave an inhibition at 10 µM of 15.6%. With `CCCNC[C@]1(O)[C@H](C)O[C@@H](O[C@H]2[C@H](C)[C@@H](O[C@@H]3O[C@H](C)C[C@H](N(C)C)[C@H]3O)[C@](C)(O)C[C@@H](C)CN[C@H](C)[C@@H](O)[C@](C)(O)[C@@H](CC)OC(=O)[C@@H]2C)C[C@@]1(C)OC` [PCM-0214927] the inhibition at 10 µM was -26.5%.
